# Test results taken from ChEMBL document CHEMBL1201862, “PubChem BioAssay data set” (2004).
# Counter-ions that a name gives are not always drawn. The source made the active and inactive calls.
# Tests used:
# [1] = target: Adenosylmethionine-8-amino-7-oxononanoate aminotransferase (Mycobacterium tuberculosis, UniProt P9WQ81); assay: Mycobacterium tuberculosis BioA enzyme inhibitor Measured in Biochemical System Using Plate Reader - 2163-02_Inhibitor_Dose_CherryPick_Activity.; type: functional, Mycobacterium tuberculosis UT205
# [2] = Fluorescence-based cell-based high throughput dose response assay for inhibitors of the interaction of nucleotide-binding oligomerization domain containing 2 (NOD2) and the receptor-interacting serine-threonine kinase 2 (RIPK2).; type: functional; conditions: Homo sapiens
# Fatty acid synthase [3] = target: T1, Fatty acid synthase (Homo sapiens, UniProt P49327); assay: inhibition of human FAS-TE enzyme activity – biochemical, kinetic fluorescence intensity, dose response (AID 624326); type: functional;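 also: rate of fluorescence rise from hydrolysis of a fluorogenic O-methyl fluorescein ester substrate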
# Fatty acid synthase [4] = target: T1, Fatty acid synthase; assay: inhibition of human FAS-TE enzyme activity – biochemical, endpoint fluorescence intensity, uHTS hits, dose response (AID 624327); type: functional;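 also: fluorescence from hydrolysis of an O-methyl fluorescein acyl ester substrate by the enzyme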
# cells = type: functional, cell-based; conditions: HEK-CNG
# Galanin receptor type 3 = Galanin receptor type 3 (Homo sapiens, UniProt O60755); assay: Fluorescence-based cell-based primary high throughput dose response assay to identify antagonists of the Galanin Receptor 3 (GalR3).; type: functional
# HEK293 [5] = assay: optical interference in Abeta FP readout, dose response, artefact control for IDE activator project, biochemical, fluorescence polarization (AID 588442); type: functional, cell-based; conditions: Homo sapiens
# [6] = test system: Streptococcus sp. 'group A'; assay: Streptococcus pyogenes SK(-)GAS viability under kanamycin – luminescence, BacTiterGlo, confirmation, counter-screen for streptokinase expression inhibitor project, dose response (AID 1900); type: functional, organism-based
# [7] = Luminescence Cell-Based Dose Retest to Confirm Inhibitors of Cancer Stem Cells. [Related pubchem assays (depositor defined):AID2717, AID2721]; type: functional; conditions: Homo sapiens
# Streptococcus = assay: GAS UMAA2166 growth inhibition – luminescence, BacTiterGlo, counter-screen for streptokinase expression inhibitor project, dose response (AID 1915); type: functional, organism-based;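 also: potency for reduction of bacterial viability or growth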
# Insulin-degrading enzyme [8] = target: T2, Insulin-degrading enzyme (Homo sapiens, UniProt P14735); assay: cellular IDE activation of Abeta substrate cleavage – fluorescence polarization, HEK cells, dose response (AID 588439); type: functional, cell-based
# T2 sequence (P14735 whole entry): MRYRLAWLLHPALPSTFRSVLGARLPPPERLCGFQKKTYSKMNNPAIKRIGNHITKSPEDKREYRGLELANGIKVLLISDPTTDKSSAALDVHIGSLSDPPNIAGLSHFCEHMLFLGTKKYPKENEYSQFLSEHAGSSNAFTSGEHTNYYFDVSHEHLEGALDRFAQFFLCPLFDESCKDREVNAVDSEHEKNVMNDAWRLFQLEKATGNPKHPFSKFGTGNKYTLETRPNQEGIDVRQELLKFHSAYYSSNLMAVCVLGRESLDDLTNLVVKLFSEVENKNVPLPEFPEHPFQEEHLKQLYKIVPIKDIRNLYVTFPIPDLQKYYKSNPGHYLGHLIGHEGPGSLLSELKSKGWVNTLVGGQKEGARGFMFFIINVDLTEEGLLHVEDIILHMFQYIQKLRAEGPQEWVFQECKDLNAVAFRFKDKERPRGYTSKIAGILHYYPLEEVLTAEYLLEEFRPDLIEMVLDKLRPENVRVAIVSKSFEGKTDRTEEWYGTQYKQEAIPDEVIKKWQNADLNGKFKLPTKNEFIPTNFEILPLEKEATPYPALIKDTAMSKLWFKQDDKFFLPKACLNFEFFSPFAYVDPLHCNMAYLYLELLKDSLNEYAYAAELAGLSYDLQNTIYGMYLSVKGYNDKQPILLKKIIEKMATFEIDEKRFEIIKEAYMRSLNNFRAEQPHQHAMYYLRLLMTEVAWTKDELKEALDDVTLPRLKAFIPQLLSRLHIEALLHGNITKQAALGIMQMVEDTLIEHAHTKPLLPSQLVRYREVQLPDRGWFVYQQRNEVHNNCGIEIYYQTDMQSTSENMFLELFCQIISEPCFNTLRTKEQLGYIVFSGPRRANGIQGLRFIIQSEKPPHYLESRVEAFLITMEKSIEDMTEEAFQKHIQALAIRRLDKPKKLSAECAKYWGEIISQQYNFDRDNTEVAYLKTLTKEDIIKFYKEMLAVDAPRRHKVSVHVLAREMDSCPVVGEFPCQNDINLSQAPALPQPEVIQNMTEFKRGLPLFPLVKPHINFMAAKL
# Insulin-degrading enzyme [9] = target: T2, Insulin-degrading enzyme; assay: recombinant IDE activation, cell-free – biochemical, fluorescence polarization, counter-screen for IDE activator project, dose response (AID 588681)
# Streptokinase A = target: T3, Streptokinase A (Streptococcus pyogenes serotype M1, UniProt P10520); assay: viability-normalized secreted streptokinase activity reduction – plasminogen activation absorbance, OD405, dose response (AID 1914); type: functional, Streptococcus pyogenes M1 GAS;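 also: secreted streptokinase activity via plasminogen activation per viability signal from cell pellet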
# T3 sequence (P10520 whole entry): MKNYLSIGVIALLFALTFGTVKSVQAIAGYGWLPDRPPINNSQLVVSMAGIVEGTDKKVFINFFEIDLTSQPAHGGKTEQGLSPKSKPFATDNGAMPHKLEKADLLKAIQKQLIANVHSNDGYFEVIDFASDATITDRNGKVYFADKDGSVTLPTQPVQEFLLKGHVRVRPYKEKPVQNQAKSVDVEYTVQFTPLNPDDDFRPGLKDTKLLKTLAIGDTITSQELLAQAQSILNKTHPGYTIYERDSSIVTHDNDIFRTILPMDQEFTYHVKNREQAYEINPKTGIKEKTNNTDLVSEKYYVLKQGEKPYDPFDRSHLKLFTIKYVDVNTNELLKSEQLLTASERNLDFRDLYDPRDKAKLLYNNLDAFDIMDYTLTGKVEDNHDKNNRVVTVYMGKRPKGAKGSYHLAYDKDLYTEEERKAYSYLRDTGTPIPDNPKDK
# HEK293 [10] = assay: membrane integrity loss in HEK cells – cell-based, fluorescence, cytotoxicity control for IDE activator project, dose response (AID 588440); type: functional; conditions: Homo sapiens;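 also: cytotoxicity by LDH release measuring loss of membrane integrity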
# [11] = target: T4, Sentrin-specific protease 1 (Homo sapiens, UniProt Q9P0U3); assay: Dose response confirmation of small molecule inhibitors of the catalytic domain of the SUMO protease, SENP1 in a FRET assay.; type: functional; conditions: read-out: IC50_Mean
# T4 sequence (Q9P0U3 whole entry): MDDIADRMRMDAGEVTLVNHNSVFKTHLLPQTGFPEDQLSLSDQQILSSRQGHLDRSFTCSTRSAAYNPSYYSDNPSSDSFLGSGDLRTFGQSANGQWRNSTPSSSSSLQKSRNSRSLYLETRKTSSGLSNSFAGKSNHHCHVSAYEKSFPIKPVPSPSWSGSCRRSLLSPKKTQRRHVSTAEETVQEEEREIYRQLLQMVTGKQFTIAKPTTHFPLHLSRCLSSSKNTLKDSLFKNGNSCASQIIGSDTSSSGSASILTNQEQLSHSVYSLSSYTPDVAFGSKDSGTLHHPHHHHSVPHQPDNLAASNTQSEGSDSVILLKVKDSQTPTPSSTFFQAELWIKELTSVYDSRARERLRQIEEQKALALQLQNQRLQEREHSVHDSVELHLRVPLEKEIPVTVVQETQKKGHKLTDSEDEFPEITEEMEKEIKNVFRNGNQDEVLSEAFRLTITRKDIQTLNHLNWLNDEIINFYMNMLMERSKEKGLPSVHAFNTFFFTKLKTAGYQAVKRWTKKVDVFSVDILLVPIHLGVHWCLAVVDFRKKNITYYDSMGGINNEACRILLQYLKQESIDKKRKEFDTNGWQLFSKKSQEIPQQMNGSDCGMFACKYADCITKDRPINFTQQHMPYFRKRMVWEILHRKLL
# [12] = target: T5, DNA repair and recombination protein RAD54-like (Homo sapiens, UniProt Q92698); assay: RAD54 Holliday junction migration blockers – biochemical, fluorescence, cherry-picked samples, dose series, confirmation (AID 651657); type: functional
# T5 sequence (Q92698 whole entry): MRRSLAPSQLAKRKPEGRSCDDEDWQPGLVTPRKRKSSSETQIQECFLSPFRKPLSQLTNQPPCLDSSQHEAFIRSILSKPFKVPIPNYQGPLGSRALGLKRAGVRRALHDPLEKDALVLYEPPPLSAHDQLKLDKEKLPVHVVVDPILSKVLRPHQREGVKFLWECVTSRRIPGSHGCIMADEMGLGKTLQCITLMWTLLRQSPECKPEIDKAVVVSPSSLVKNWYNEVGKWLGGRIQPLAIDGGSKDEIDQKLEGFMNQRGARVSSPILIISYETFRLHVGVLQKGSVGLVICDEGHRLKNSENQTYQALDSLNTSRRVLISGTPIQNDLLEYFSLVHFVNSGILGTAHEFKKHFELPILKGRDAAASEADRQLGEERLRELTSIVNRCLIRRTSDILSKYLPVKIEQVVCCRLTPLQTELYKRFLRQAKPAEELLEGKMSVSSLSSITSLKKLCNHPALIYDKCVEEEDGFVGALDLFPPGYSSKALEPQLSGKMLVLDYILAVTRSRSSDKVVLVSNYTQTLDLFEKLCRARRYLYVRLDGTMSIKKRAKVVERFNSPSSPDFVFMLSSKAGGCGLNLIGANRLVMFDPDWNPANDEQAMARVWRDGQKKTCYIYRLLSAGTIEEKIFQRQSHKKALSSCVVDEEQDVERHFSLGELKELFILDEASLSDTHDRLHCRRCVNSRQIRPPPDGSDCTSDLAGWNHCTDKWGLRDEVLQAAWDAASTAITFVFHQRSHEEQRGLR
# [13] = target: T4, Sentrin-specific protease 1; assay: SENP1 catalytic domain blockers, concentration series – biochemical, kinetic FRET, dose response (AID 651697); type: functional; conditions: read-out: IC50_Mean
# [14] = target: 5-hydroxytryptamine receptor 2A (Mus musculus, UniProt P35363); type: functional, cell-based;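 also: CHO-K1 cells with tagged receptor and beta-arrestin; agonist potency measured as compound-induced activation of the receptor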
# Mu-type opioid receptor = Mu-type opioid receptor (Homo sapiens, UniProt P35372); type: functional, cell-based;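 also: U2OS cells with beta-arrestin recruitment to OPRM1 by beta-gal complementation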
# [15] = target: T6, Heat shock factor protein 1 (Mus musculus, UniProt P38532); assay: decrease of HSF1-responsive luciferase luminescence – cell-based, NIH3T3, dose retest, confirmation (AID 2382); type: functional;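 also: NIH3T3 fibroblasts with HSF1-driven luciferase reporter stressed by proteasome inhibitor MG132; luminescence from HSF1-driven luciferase expression after 8 hours of MG132 stress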
# T6 sequence (P38532 whole entry): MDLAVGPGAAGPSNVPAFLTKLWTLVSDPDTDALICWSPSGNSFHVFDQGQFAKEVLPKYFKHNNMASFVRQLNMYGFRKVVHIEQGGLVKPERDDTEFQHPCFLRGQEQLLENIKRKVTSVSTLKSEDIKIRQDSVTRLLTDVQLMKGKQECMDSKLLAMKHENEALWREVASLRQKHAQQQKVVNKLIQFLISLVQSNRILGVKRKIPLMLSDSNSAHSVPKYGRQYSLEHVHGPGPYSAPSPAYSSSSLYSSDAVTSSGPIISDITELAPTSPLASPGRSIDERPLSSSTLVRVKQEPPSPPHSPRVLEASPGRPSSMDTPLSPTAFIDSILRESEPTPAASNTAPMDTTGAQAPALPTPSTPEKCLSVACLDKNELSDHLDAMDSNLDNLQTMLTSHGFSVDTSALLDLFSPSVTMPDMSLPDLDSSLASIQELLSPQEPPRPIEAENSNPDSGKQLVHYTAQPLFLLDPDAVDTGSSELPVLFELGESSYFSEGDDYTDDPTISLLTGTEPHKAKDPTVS
# [16] = target: Arf-GAP with SH3 domain, ANK repeat and PH domain-containing protein 1 (Homo sapiens, UniProt Q9ULH1); type: functional;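 also: biochemical fluorescence polarization dose–response screen measuring inhibition of ASAP1; ASAP1 GAP domain stimulating GTP hydrolysis by truncated human ARF1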
# Interleukin-8 = target: T7, Interleukin-8 (Homo sapiens, UniProt P10145); assay: Dose Response confirmation of uHTS small molecule hits for cystic fibrosis induced NFkb Inhibitors in a PAF-induced IL8 counterscreen.; type: functional; conditions: read-out: IC50_Mean
# T7 sequence (P10145 whole entry): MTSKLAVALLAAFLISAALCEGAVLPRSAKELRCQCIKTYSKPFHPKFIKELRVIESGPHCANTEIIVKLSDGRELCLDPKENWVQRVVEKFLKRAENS
# 5-hydroxytryptamine receptor 2A, sequence (P35363 whole entry): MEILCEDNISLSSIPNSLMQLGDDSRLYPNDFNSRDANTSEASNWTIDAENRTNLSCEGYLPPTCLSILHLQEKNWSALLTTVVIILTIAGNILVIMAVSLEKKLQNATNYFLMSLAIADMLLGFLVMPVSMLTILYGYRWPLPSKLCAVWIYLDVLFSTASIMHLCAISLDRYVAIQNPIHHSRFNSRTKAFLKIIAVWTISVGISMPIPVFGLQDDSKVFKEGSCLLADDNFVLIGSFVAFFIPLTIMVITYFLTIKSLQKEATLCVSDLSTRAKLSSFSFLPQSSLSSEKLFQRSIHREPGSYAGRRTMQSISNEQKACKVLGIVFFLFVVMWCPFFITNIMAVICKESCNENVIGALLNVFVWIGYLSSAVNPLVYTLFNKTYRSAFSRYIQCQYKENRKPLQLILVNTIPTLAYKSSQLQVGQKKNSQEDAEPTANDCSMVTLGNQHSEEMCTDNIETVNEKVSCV
# Mu-type opioid receptor, sequence (P35372 whole entry): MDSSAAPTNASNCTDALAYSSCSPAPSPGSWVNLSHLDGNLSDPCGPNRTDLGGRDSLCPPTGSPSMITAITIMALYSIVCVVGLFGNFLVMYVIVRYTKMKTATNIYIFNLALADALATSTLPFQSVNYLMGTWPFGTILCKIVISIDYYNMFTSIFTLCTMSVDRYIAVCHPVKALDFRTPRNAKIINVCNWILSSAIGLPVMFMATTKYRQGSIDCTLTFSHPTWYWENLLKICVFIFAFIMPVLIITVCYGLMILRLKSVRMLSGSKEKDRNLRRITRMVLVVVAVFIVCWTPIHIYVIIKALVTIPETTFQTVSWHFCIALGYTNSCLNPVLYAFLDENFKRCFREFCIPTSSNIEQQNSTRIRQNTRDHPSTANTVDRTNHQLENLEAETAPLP
# Arf-GAP with SH3 domain, ANK repeat and PH domain-containing protein 1, sequence (Q9ULH1 whole entry, the tested form may be a part): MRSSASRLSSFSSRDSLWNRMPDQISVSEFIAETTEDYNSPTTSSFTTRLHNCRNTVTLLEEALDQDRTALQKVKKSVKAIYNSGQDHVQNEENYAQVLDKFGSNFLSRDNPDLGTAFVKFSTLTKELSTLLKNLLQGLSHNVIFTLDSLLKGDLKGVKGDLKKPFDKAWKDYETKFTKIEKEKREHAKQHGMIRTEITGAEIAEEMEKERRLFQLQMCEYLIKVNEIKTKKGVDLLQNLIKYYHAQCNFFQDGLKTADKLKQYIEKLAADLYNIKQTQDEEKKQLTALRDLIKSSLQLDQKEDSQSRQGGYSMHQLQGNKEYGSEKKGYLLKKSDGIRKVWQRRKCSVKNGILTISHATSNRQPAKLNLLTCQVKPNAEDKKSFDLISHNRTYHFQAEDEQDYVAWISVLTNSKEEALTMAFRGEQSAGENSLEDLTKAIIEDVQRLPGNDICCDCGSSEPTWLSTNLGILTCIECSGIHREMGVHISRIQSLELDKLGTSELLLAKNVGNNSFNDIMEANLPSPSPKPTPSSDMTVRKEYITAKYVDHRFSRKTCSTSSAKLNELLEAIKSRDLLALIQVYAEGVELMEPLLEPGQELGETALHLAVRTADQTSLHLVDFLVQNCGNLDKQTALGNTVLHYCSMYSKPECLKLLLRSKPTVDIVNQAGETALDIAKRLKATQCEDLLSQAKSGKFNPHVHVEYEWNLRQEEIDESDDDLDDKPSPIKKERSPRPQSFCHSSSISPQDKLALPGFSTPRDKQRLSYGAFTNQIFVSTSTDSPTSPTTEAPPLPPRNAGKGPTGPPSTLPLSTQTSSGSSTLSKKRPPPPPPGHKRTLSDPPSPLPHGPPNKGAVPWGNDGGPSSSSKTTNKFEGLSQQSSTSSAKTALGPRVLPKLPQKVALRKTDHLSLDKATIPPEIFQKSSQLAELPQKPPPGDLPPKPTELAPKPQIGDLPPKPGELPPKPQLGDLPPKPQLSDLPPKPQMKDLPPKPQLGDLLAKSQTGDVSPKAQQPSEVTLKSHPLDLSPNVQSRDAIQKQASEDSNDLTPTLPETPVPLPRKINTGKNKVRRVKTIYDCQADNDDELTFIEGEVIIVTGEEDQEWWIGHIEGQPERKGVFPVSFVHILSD
# T1 sequence (P49327 whole entry): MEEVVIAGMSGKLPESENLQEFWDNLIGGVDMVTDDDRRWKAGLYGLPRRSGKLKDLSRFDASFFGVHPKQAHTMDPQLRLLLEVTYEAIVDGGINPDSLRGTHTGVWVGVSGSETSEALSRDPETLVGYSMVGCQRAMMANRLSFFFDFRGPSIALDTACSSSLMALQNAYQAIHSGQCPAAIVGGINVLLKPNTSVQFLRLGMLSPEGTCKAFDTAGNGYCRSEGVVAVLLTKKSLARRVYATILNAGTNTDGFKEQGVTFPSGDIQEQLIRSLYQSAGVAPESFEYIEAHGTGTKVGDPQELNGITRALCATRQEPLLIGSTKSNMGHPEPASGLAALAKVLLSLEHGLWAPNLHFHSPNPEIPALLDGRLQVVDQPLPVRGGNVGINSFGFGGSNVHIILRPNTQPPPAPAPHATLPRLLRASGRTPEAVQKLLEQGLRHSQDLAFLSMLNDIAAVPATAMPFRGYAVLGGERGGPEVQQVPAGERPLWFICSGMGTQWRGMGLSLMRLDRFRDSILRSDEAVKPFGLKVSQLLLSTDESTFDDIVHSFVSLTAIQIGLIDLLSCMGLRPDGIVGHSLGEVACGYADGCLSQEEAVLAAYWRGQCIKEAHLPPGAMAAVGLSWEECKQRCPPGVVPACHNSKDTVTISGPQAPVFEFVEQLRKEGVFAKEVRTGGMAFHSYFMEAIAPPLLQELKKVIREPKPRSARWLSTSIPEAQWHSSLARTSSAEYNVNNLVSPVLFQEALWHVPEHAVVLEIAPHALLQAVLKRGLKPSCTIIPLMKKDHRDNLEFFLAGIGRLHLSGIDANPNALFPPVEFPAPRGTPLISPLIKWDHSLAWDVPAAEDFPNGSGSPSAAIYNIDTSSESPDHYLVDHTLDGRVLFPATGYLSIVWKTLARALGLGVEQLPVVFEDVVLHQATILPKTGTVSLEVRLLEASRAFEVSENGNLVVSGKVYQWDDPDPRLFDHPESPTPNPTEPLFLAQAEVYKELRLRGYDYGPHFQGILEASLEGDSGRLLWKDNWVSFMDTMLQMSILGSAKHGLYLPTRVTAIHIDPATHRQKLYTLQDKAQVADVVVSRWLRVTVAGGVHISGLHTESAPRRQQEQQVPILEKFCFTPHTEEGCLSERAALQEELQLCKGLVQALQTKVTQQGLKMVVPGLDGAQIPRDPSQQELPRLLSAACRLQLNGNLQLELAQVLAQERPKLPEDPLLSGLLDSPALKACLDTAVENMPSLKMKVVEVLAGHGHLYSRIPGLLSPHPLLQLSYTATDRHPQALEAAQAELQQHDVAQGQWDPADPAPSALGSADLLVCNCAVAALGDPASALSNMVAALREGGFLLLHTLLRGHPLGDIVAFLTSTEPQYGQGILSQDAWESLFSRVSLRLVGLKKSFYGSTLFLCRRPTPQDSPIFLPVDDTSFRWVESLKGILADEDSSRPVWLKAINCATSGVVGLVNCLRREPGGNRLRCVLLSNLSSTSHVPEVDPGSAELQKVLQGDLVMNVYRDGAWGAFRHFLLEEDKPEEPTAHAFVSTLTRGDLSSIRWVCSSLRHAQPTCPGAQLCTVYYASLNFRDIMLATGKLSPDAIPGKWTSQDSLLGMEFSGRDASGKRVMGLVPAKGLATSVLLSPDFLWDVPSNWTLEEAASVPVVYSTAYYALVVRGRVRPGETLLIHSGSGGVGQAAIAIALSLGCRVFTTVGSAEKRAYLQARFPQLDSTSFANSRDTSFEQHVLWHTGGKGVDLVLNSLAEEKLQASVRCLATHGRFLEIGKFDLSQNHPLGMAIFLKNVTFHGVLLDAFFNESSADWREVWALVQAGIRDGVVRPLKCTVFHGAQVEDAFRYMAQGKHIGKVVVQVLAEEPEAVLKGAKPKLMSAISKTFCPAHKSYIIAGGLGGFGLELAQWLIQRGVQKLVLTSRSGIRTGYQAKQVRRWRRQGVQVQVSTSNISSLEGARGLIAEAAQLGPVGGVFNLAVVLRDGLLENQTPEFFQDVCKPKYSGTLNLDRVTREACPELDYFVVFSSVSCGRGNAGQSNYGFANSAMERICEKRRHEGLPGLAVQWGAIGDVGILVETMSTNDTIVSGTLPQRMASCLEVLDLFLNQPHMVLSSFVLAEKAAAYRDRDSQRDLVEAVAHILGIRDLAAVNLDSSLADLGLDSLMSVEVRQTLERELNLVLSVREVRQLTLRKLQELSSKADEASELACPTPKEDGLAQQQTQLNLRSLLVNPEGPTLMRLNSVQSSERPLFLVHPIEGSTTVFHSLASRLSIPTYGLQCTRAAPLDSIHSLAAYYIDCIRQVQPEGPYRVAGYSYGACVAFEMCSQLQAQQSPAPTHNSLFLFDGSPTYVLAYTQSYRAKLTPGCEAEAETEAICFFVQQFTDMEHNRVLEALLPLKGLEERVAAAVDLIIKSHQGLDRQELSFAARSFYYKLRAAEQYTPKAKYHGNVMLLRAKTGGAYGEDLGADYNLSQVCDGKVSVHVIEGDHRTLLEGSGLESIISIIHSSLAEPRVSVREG
# Adenosylmethionine-8-amino-7-oxononanoate aminotransferase, sequence (P9WQ81 whole entry, the tested form may be a part): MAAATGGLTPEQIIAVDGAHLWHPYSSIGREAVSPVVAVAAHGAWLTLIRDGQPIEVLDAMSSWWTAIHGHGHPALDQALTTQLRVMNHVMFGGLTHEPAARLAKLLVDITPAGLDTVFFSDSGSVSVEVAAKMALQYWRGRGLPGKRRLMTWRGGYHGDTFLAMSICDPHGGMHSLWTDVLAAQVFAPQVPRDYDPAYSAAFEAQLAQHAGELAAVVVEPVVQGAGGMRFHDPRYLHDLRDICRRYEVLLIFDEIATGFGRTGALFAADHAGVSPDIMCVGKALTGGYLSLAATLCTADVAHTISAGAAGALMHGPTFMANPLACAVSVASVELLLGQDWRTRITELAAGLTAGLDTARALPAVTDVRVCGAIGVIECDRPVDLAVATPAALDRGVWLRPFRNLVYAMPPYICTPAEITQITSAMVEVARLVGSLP
compound,measurement,setting,value
C/C=C/c1ccc2c(c1)O[C@@H](CN(C)C(=O)Nc1ccc(OC)cc1)[C@@H](C)CN([C@@H](C)CO)S2(=O)=O,AC50,[1],2.08 µM (active)
CCOC(=O)[C@]12Cc3cc(OC)ccc3[C@H]1N(C1CCCCC1)C(=O)c1ccccc12,IC50,[2],2.5 µM (active)
same,IC50,Fatty acid synthase [3],6.5 µM (active)
same,IC50,Fatty acid synthase [4],8.86 µM (active)
OCc1cc(C(O)CNCCCCCCOCCCCc2ccccc2)ccc1O (stereo not drawn) [SALMETEROL XINAFOATE],EC50,cells,> 29.9 µM (inactive)
same,IC50,Galanin receptor type 3,> 29.9 µM (inactive)
CC(C)=CCCC1(C)C=Cc2c(c(C)cc3c2[nH]c2cc(O)ccc23)O1 (stereo not drawn),EC50,HEK293 [5],> 55.9 µM (inactive)
same,EC50,[6],2.61 µM (active)
same,AC50,[7],5.38 µM (active)
same,EC50,Streptococcus,5.07 µM (active)
same,EC50,Insulin-degrading enzyme [8],41 µM (inactive)
same,EC50,Insulin-degrading enzyme [9],> 54.7 µM (inactive)
same,EC50,Streptokinase A,> 150 µM (not active)
same,IC50,HEK293 [10],15.3 µM (inactive)
COc1cccc2c1-c1c(O)cccc1C2=O,IC50,[11],18.6 µM (active)
same,AC50,[12],66.7 µM (active)
same,IC50,[13],37.7 µM (inactive)
Cc1nc2nc(SCC(=O)N3CCOCC3)nn2c(C)c1Cc1ccccc1,AC50,[1],0.43 µM (active)
CN1CCN(C2=Nc3c(Cl)cc(Cl)c4cccc2c34)CC1,IC50,[11],10.2 µM (active)
same,IC50,[13],6.95 µM (active)
COc1c2c(cc3c1OCO3)CCN(C)C2 [HYDROCOTARNINE HYDROBROMIDE],EC50,[14],76 µM (inactive)
same,EC50,Mu-type opioid receptor,92.4 µM (inactive)
CN1CCc2c(sc(/N=C/c3cc(C(C)(C)C)ccc3O)c2C#N)C1,EC50,[14],12.9 µM (inactive)
same,EC50,[15],> 195 µM (not active)
same,EC50,Mu-type opioid receptor,92.6 µM (inactive)
O=C(N/N=C/c1cccnc1)c1cc2c(ccc3ccccc32)o1,IC50,[16],19.9 µM (inactive)
O=C(CSc1ccccc1)Nc1ccc(-c2nc3ccccc3[nH]2)cc1,IC50,[16],14.7 µM (inactive)
Cc1c(-c2ccccc2)oc2c(C(=O)N3CCN(c4ccc([N+](=O)[O-])cc4)CC3)cccc2c1=O,IC50,Interleukin-8,40.2 µM (inactive)
